From patent publication US20240317736A1, “DEUTERATED DERIVATIVE AS ATX INHIBITOR, AND APPLICATION THEREOF” (Xizang Haisco Pharmaceutical Co., Ltd., priority 2020, published 2024)
Read-outs that look alike come from different tables or passages of the source.

How the values were obtained:
[1] = Pharmacokinetic test in monkeys; format: in vivo, Cynomolgus macaques; details: male, cynomolgus monkey, plasma; for Cmax: read-out: C0 or Cmax
Experimental: Test objective: the pharmacokinetic characteristics and bioavailability of test compounds in monkeys were evaluated.
Test animals: twelve male Cynomolgus macaques, 2.4-5.9 kg, 3-5.5 years old, purchased from Suzhou Xishan Zhongke Laboratory Animal Co., Ltd., with the production license number of SCXK (SU) 2018-0001.
Vehicle for intravenous administration: 5% DMSO+5% Solutol+90% Saline; • vehicle for intragastric administration: 1% DMSO+1% Solutol+98% (0.5% CMC-Na)
(§1) Before and after the administration, 1.0 mL of blood was taken from the veins of the forelimbs and placed in an EDTAK2 centrifuge tube. The blood was centrifuged at 5000 rpm at 4° C. for 10 min, and plasma was collected. Time points for blood collection: 0 min, 5 min, 15 min, 30 min, 1 h, 2 h, 4 h, 6 h, 8 h, 10 h, 12 h and 24 h. Before analysis and detection, all plasma samples were stored at −80° C.

[2] = Pharmacokinetic test in dogs; format: in vivo, male beagles; details: male, beagle, dog, plasma; for Cmax: read-out: C0 or Cmax
Experimental: Test objective: the pharmacokinetic characteristics and bioavailability of test compounds in dogs were evaluated.
Test animals: twelve male beagles, 8-10 kg, 0.5-1.5 years old, purchased from Beijing Marshall Biotechnology Co. Ltd., with the production license number of SCXK (JING) 2016-001.
Vehicle for intravenous administration: 5% DMSO+5% Solutol+90% Saline; • vehicle for intragastric administration: 1% DMSO+1% Solutol+98% (0.5% MC);
as §1

[3] = biological target: T1, autocrine motility factor (Homo sapiens, UniProt Q13822); test: Inhibition of LPA formation in mixed ex vivo human plasma; format: biochemical; details: 37° C., 2 h
T1 construct: Whole blood was anticoagulated with heparin and centrifuged, and then plasma was collected; from tissue; host or cells: pooled human plasma (heparin-anticoagulated whole blood)
Experimental: Autocrine motility factor is a phosphodiesterase in plasma that converts lysophosphatidylcholine (LPC) to lysophosphatidic acid (LPA). Therefore, the formation of LPA can be used to evaluate the potency of an autocrine motility factor inhibitor. The potency of the compound in mixed ex vivo human plasma was evaluated.
Whole blood was anticoagulated with heparin and centrifuged, and then plasma was collected. 5 μL of gradient-diluted test compounds or DMSO was added to 95 μL of plasma and incubated at 37° C. for 2 h. After that, a stop buffer (40 mM disodium hydrogen phosphate buffer, containing 30 mM of citric acid, pH=4) was added. LPA in plasma was detected by LC-MSMS before and after incubation. In order to determine the concentration of LPA 18:2 or LPA 20:4 in the plasma in study, calibration standard substances at 20000 ng/mL, 10000 ng/mL, 5000 ng/ml, 2000 ng/ml, 1000 ng/mL, 500 ng/mL, 200 ng/ml, 100 ng/mL, 50 ng/ml, 20 ng/mL and 10 ng/ml for LPA 18:2 or LPA 20:4 were prepared by performing serial dilution in butanol. 3 μL of calibration standard solution was added to 27.0 μL of blank plasmas in each 1.5 mL microcentrifuge tube to produce 1× calibration standard substances. 30.0 μL of standard substances or plasma in study was added to each 1.5 mL microcentrifuge tube. 200 μL of butanol (containing 25.0 ng/mL LPA 17:0 for internal control) was added to each 1.5 mL microcentrifuge tube containing the plasma in study or calibration standard substance. Vortex oscillation was performed for 1 min, and centrifugation was performed at 10000 rpm for 10 min. 180 μL of the supernatant was transferred to a 96-well plate, and LC/MS/MS was used together with the standard substance to quantify the concentration of LPA 18:2 in the plasma. In short, 8 μL of the solution was injected, and LC-MS/MS analysis using an ACQUITY UPLC BEH C18 column (2.1×50 mm, 1.7 μm) was performed, wherein mobile phase A [20 mM NH4OAC aqueous solution (0.1% FA)] and mobile phase B [5 mM NH4OAC aqueous solution/0.2% FA in ACN=5:95] were used. The parameters of a mass spectrometer for LPA 18:2 were optimized by means of deprotonation of molecular ions. For LPA 18:2 at m/z 433.2([M−H]−), LPA 20:4 at 457.2, and LPA 18:2 and LPA 20:4 both at m/z 152.8, abundant product ions were obtained. Quantitative data were obtained in a multiple reaction monitoring (MRM) negative electrospray ionization mode.
The inhibition rates of compounds at different concentrations on LPA formation were determined by comparing the changes of LPA levels in incubated and unincubated plasma. The IC50 of the compounds was calculated as a calculation inhibition rate, and the relative concentration at each well=the concentration at each well−the average concentration at baseline.
Inhibition rate %=(average relative concentration at control well−average relative concentration at test well)/average relative concentration at control well×100%. The curve was plotted with the inhibition rates as a y axis and the compound concentrations as an x axis, and fitting was performed by GraphPad Prism7.0 using log (inhibitor) and normalized response (variable slope).

[4] = Pharmacokinetic test in mice; format: in vivo; details: male, C57, mouse, plasma; for Cmax: read-out: C0 or Cmax
Experimental: Test objective: the pharmacokinetic characteristics and bioavailability of test compounds in mice were evaluated.
Test animals: thirty-six C57 male mice, about 25 g, 6-8 weeks old, purchased from Chengdu Ddossy Experimental Animals Co., Ltd., with the production license number of SCXK (CHUAN) 2020-030.
Vehicle for intravenous administration: 5% DMA+5% Solutol+90% Saline; vehicle for intragastric administration: 0.5% MC
Before and after the administration, 0.06 mL of blood was taken from the orbits under isoflurane anaesthesia and placed in an EDTAK2 centrifuge tube. The blood was centrifuged at 5000 rpm at 4° C. for 10 min, and plasma was collected. Time points for blood collection: 0 min, 5 min, 15 min, 30 min, 1 h, 2 h, 4 h, 6 h, 8 h, 10 h and 24 h. Before analysis and detection, all plasma samples were stored at −80° C.

[5] = biological target: hERG potassium channel (Homo sapiens, UniProt Q12809); test: cell-based
Chain of hERG potassium channel (Q12809 whole entry): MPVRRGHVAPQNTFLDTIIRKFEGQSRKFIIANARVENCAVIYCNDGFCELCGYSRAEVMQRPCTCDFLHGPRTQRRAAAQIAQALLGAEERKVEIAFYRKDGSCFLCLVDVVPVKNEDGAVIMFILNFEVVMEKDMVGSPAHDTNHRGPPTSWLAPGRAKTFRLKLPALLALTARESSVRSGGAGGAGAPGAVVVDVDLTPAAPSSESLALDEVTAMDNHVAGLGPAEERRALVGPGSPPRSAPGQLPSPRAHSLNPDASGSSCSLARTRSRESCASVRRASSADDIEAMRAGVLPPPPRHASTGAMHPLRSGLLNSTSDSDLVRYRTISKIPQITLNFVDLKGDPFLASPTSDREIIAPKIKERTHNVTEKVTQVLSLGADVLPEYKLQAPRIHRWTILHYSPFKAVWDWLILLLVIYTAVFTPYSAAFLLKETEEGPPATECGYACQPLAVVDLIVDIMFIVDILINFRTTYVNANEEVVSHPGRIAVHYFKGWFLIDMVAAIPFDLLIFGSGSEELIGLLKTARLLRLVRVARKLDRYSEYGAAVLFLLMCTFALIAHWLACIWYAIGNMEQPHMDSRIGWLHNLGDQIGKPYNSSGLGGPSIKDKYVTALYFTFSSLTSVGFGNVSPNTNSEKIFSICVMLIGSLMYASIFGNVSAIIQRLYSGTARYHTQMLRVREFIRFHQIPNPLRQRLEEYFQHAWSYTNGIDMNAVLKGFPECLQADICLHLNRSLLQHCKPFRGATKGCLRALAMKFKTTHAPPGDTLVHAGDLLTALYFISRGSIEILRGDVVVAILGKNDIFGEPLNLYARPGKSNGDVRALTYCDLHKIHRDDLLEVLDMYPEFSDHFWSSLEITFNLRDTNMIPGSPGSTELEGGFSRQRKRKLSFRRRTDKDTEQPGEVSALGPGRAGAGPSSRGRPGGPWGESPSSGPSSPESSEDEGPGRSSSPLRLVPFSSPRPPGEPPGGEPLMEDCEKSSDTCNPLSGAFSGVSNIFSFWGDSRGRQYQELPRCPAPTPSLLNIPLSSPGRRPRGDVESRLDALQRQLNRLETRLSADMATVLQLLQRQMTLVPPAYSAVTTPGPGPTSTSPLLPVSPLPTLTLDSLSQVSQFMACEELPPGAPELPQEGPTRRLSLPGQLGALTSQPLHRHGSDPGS
Experimental: The effect of the example compounds on the current of an hERG potassium channel (human Ether-à-go-go Related Gene potassium channel) was tested by 10 means of an electrophysiological manual patch-clamp method.
HEK293 cell lines stably expressing hERG ion channels were purchased from Invitrogen.
A test compound was firstly dissolved in DMSO and prepared into a stock solution with a final concentration of 30 mM. […] Five working solutions with different gradient concentrations were used to determine the potential inhibitory effect of the compound on the hERG potassium channel and used to fit a dose-response curve and calculate IC50.
A small slide carrying HEK293 cells in a culture dish was placed in a perfusion tank on a micromanipulator. • 2. […] The peak value of the tail current was the magnitude of hERG currents. • 9 The hERG currents used to detect the test compounds were continuously recorded for 120 seconds prior to administration, thereby evaluating the stability of test cells generating hERG currents. […] The inhibitory effects of the test compounds on hERG currents were tested as follows: firstly, the hERG current measured in the extracellular fluid containing 0.1% DMSO was used as a test baseline. […] Upon completion of each perfusion, waiting about 5 min allowed the compounds to be fully acted on the cells, and the hERG currents were recorded synchronously. […]

[2H]C([2H])([2H])N(c1nc(-c2ccc(F)cc2)c(C#N)s1)c1c(CC)nn2cc(F)c(N3CCN(CC(=O)N4CC(O)C4)CC3)cc12 [Compound 3, 2-((2-ethyl-6-fluoro-5-(4-(2-(3-hydroxyazetidin-1-yl)-2-oxoethyl)piperazin-1-yl)pyrazolo[1,5-a]pyridin-3-yl)(methyl-d3)amino)-4-(4-fluorophenyl)thiazole-5-carbonitrile]
AUC ([1]; IV 1 mg/kg): 2010 ± 621 ng·h/mL | half-life ([1]; IV 1 mg/kg): 2.96 ± 1 h | Cmax ([1]; IV 1 mg/kg): 1040 ± 116 ng/mL | AUC ([1]; PO 5 mg/kg): 3120 ± 492 ng·h/mL | Tmax ([1]; PO 5 mg/kg): 1.33 ± 0.58 h | half-life ([1]; PO 5 mg/kg): 4.02 ± 0.59 h | Cmax ([1]; PO 5 mg/kg): 657 ± 170 ng/mL | AUC ([2]; IV 1 mg/kg): 6840 ± 883 ng·h/mL | half-life ([2]; IV 1 mg/kg): 6.96 ± 1.5 h | Cmax ([2]; IV 1 mg/kg): 1490 ± 451 ng/mL | AUC ([2]; PO 2 mg/kg): 15900 ± 2980 ng·h/mL | Tmax ([2]; PO 2 mg/kg): 1.67 ± 0.58 h | half-life ([2]; PO 2 mg/kg): 7.19 ± 0.75 h | bioavailability ([2]; PO 2 mg/kg vs IV 1 mg/kg): 116 ± 22% | Cmax ([2]; PO 2 mg/kg): 1620 ± 176 ng/mL | IC50 ([3]; LPA 18:2 by LC-MS/MS, read-out: IC50 for inhibiting LPA formation (18:2)): 42.7 nM | IC50 ([3]; LPA 20:4 by LC-MS/MS, read-out: IC50 for inhibiting LPA formation (20:4)): 44.5 nM | AUC ([4]; IV 1 mg/kg): 1490 ng·h/mL | half-life ([4]; IV 1 mg/kg): 1.56 h | Cmax ([4]; IV 1 mg/kg): 1110 ng/mL | AUC ([4]; PO 10 mg/kg): 9600 ng·h/mL | Tmax ([4]; PO 10 mg/kg): 0.25 h | half-life ([4]; PO 10 mg/kg): 2.14 h | bioavailability ([4]; PO 10 mg/kg vs IV 1 mg/kg): 64.5% | Cmax ([4]; PO 10 mg/kg): 1300 ng/mL | IC50 [5]: 23100 nM
